Assay results published in paper PMC5729429, “Gimatecan exerts potent antitumor activity against gastric cancer in vitro and in vivo via AKT and MAPK signaling pathways” (Journal of Translational Medicine, 2017).
Counter-ions that a name gives are not always drawn.

Legend:
[1] = test system: AKT and MAPK signaling pathways; assay: Western blot of AKT and MAPK pathway molecules in GC cells; type: cell-based, human; conditions: 48 h
Description: (§1) SNU-1, HGC27 and NCI-N87 cells were starved in serum-free medium overnight, exposed to inhibitors for 48 h and harvested at 70–80% confluence. Total protein was extracted from cells or xenograft tissues on ice, using RIPA Lysis Buffer (Beyotime, Shanghai, China) supplemented with complete protease inhibitor and phosphatase inhibitor cocktail (Roche, Basel, Switzerland). Protein concentration was measured using a BCA Protein Assay Kit (Beyotime, Shanghai, China), and 50 μg protein from each sample was separated by 10% SDS-PAGE. After transfer to nitrocellulose membranes (GE Healthcare, Piscataway, NJ), samples were incubated with corresponding primary antibodies diluted in 5% BSA at 4 °C overnight and then with secondary antibodies at room temperature for 1 h. Proteins were visualized with a chemiluminescent detection system (GE Healthcare), using ECL plus Western blot reagents (GE Healthcare). Western-blotting bands were quantified and normalized by ImageJ software.
Cells were starved in serum-free medium overnight, exposed to gimatecan or irinotecan for 48 h and harvested at 70–80% confluence. Total protein of SNU-1 and NCI-N87 was extracted and the expression of TopI, pAKT, pMEK, pERK, p-p38 MAPK and pJNK2 were assessed by western-blotting followed by quantification and normalization by ImageJ. All data are mean ± SD of three independent experiments. Compared with controls, *p < 0.05

Bak, Bcl-2, cleaved PARP = assay: Western blot of Bak, Bcl-2, PARP in GC cells; type: cell-based, human; conditions: SNU-1 and HGC27
Description: as §1, with “Proteins were visualized with a chemiluminescent detection system (GE Healthcare), using ECL plus Western blot reagents (GE Healthcare).” left out
Cells were treated with gimatecan (0–1 µM) and irinotecan (0–1 µM) for 24 h and stained with Annexin V-PE/7-AAD. Sums of percentages of early apoptosis (Q3) and late apoptosis (Q2) were calculated as the total apoptosis ratios. c, d Pro- and anti-apoptotic proteins including Bcl-2, Bak, PARP and cleaved PARP were assessed by western-blotting in SNU-1 and NCI-N87 cells. Western-blotting bands were quantified and normalized by ImageJ. […]

SMILES | effect on AKT and MAPK pathway molecules ([1]; NCI-N87 cells) | effect on AKT and MAPK pathway molecules ([1]; SNU-1 and HGC27 cells, pAKT, pMEK, pERK inhibited, p-p38 and pJNK2 upregulated) | Bak, Bcl-2 and PARP protein after treatment (Bak, Bcl-2, cleaved PARP)
CC[C@@]1(O)C(=O)OCc2c1cc1n(c2=O)Cc2c-1nc1ccccc1c2/C=N/OC(C)(C)C [Gimatecan, 7-t-butoxyiminomethylcamptothecin] | only inhibited expression of pAKT and pERK | significantly inhibited the AKT pathway and activated the JNK2 and p38 MAPK pathway | Bak and cleaved PARP expression was increased and Bcl-2 expression was inhibited
CCc1c2c(nc3ccc(OC(=O)N4CCC(N5CCCCC5)CC4)cc13)-c1cc3c(c(=O)n1C2)COC(=O)[C@]3(O)CC [Irinotecan, irinotecan hydrochloride] | – | – | apoptosis was not induced
